Reference: patent publication US6512000B1, “Aminocarbonyl-substituted benzimidazoles having tryptase-inhibitory activity” (Boehringer Ingelheim Pharma KG, priority 1999, dated 2003)
Counter-ions that a name gives are not always drawn.

Tested on: not given
Test: not given
Settings: not given

| Compound | melting point [°C] |
| --- | --- |
| Cl.Cl.Cl.Cn1c(CCc2ccc(CN)cc2)nc2cc(C(=O)NCCNc3ccccc3)ccc21 | > 220 |
| CCOC(=O)C(Cc1ccc(C(=N)N)cc1)N(C)C(=O)c1ccc2c(c1)nc(CCc1ccc(C(=N)N)cc1)n2C (stereo not drawn) (as salt: formate) [Example 29, Ethyl 2-{2-[2-(4-Amidinophenyl)-ethyl]-1-methyl-benzimidazol-5-yl-carbonyl-(methylamino)}-3-(4-amidinophenyl)-propionate-formate] | 230 |
| CC(=O)NCCCCC(NC(=O)c1ccc2c(c1)nc(CCc1ccc(C(=N)N)cc1)n2C)C(=O)O (stereo not drawn) (as salt: formate) [Example 34] | 158 |
| Cn1c(CCc2ccc(C(=N)N)cc2)nc2cc(C(=O)NCCC(c3ccccc3)c3ccccc3)ccc21 (as salt: hydrochloride) | 185 |
| CN(Cc1cccnc1)C(=O)c1ccc2c(c1)nc(CCc1ccc(C(=N)N)cc1)n2C (as salt: hydrochloride) [Example 1, 2-[2-(4-Amidinophenyl)ethyl]-1-methyl-benzimidazol-5-yl-carboxylic Acid-N-(pyridin-3-yl-methyl)-N-methyl-amide-hydrochloride] | > 220 |

Target: T1, rh beta tryptase (Homo sapiens, UniProt P20231)
T1 construct: purchased Promega
Test: Tryptase inhibition test (cleavage of N-p-tosyl-Gly-Pro-Lys-para-nitroaniline, p-nitroaniline measured at 405 nm)
Type: biochemical
Settings: concentration at which 50% of the tryptase enzyme activity is inhibited; substrate 0.6 mM, pH 7.4, 37° C.
Method in brief: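 Recombinant human beta tryptase (0.91 U/ml) in 100 mM Tris HCl pH 7.4 with 5 mM calcium and 100 mg/ml heparin; compounds pre-incubated 5 min, then 0.6 mM tosyl-Gly-Pro-Lys-pNA added, 5 min at 37 °C. p-Nitroaniline read at 405 nm; % inhibition at 10 μM, IC50 determined when inhibition exceeded 70%.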

T1 sequence (P20231 31-275): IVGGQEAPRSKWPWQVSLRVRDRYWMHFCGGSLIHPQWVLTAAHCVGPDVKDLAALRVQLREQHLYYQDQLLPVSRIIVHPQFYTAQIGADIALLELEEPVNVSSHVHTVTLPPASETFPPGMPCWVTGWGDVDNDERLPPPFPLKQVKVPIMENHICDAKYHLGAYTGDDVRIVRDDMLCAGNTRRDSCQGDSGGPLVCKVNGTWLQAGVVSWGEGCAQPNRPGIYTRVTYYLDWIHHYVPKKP

| Compound | IC50 [nM] |
| --- | --- |
| CCOCCCn1c(CCc2ccc(C(=N)N)cc2)nc2cc(C(=O)N(CCN)Cc3cccc(C(F)(F)F)c3)ccc21 [Example 390, 2-[2-(4-amidinophenyl)ethyl]-1-(3-ethoxypropyl)-benzimidazol-5-yl-carboxylic acid-N-(2-aminoethyl)-N-(3-trifluoromethylbenzyl)-amide] | 402 |
| CCOCCCn1c(CCc2ccc(C(=N)N)cc2)nc2cc(C(=O)N(CCN)Cc3ccccc3F)ccc21 [Example 406, 2-[2-(4-amidinophenyl)ethyl]-1-(3-ethoxypropyl)-benzimidazol-5-yl-carboxylic acid-N-(2-aminoethyl)-N-(2-fluorobenzyl)-amide] | 392 |
| N=C(N)c1ccc(CCc2nc3cc(C(=O)N(CCN)Cc4ccccc4F)ccc3n2CC2CC2)cc1 [Example 410, 2-[2-(4-amidinophenyl)ethyl]-1-cyclopropylmethyl-benzimidazol-5-yl-carboxylic acid-N-(2-aminoethyl)-N-(2-fluorobenzyl)-amide] | 626 |
| CCOCCCn1c(CCc2ccc(C(=N)N)cc2)nc2cc(C(=O)N(CCN)Cc3ccc4ccccc4c3)ccc21 [Example 422, 2-[2-(4-amidinophenyl)ethyl]-1-(3-ethoxypropyl)-benzimidazol-5-yl-carboxyiic acid-N-(2-aminoethyl)-N-(2-naphthylmethyl)-amide] | 364 |

Same assay, conditions: inhibition of rh beta tryptase at 10 μM test substance; substrate N-p-tosyl-Gly-Pro-Lys-para-nitroaniline 0.6 mM, pH 7.4, 37° C., 5 minutes

| Compound | inhibition at 10 µM [%] | % Inhibition (10 μM) [%] |
| --- | --- | --- |
| N=C(N)c1ccc(CCc2nc3cc(C(=O)N(CCN)CCCc4ccccc4)ccc3n2CC2CCCO2)cc1 (stereo not drawn) [Example 370, 2-[2-(4-amidinophenyl)ethyl]-1-(tetrahydrofuran-2-yl-methyl)-benzimidazol-5-yl-carboxylic acid-N-(2-aminoethyl)-N-(3-phenylpropyl)-amide] | 53 |  |
| N=C(N)c1ccc(CCc2nc3cc(C(=O)N(CCN)CCCc4ccccc4)ccc3n2Cc2cccs2)cc1 [Example 371, 2-[2-(4-amidinophenyl)ethyl]-1-(2-thiophenyl-methyl)-benzimidazol-5-yl-carboxylic acid-N-(2-aminoethyl)-N-(3-phenylpropyl)-amide] | 55 |  |
| CCOCCCn1c(CCc2ccc(C(=N)N)cc2)nc2cc(C(=O)N(CCN)Cc3ccc(Cl)cc3)ccc21 [Example 374, 2-[2-(4-amidinophenyl)ethyl]-1-(3-ethoxypropyi)-benzimidazol-5-yl-carboxylic acid-N-(2-aminoethyl)-N-(4-chlorbenzyl)-amide] |  | 62 |
| CCCCN(CCCC)CCCn1c(CCc2ccc(C(=N)N)cc2)nc2cc(C(=O)N(CCN)Cc3ccc(Cl)cc3)ccc21 [Example 375, 2-[2-(4-amidinophenyl)ethyl]-1-(3-di-n-butylaminopropyl)-benzimidazol-5-yl-carboxylic acid-N-(2-aminoethyl)-N-(4-chlorbenzyl)-amide] |  | 58 |
| N=C(N)c1ccc(CCc2nc3cc(C(=O)N(CCN)Cc4ccc(Cl)cc4)ccc3n2CC2CC2)cc1 [Example 378, 2-[2-(4-amidinophenyl)ethyl]-1-cyclopropylmethyl-benzimidazol-5-yl-carboxylic acid-N-(2-aminoethyl)-N-(4-chlorbenzyl)-amide] |  | 52 |
| Cc1ccccc1N1CCN(CCCn2c(CCc3ccc(C(=N)N)cc3)nc3cc(C(=O)N(CCN)Cc4ccc(Cl)cc4)ccc32)CC1 [Example 384, 2-[2-(4-amidinophenyl)ethyl]-1-{3-[4-(2-methylphenyl)-piperazin-1-yl]-propyl} -benzimidazol-5-yl-carboxylic acid-N-(2-aminoethyl)-N-(4-chlorbenzyl)-amide] |  | 59 |
| N=C(N)c1ccc(CCc2nc3cc(C(=O)N(CCN)Cc4ccc(Cl)cc4)ccc3n2CC2CCCO2)cc1 (stereo not drawn) [Example 386, 2-[2-(4-amidinophenyl)ethyl]-1-(tetrahydrofuran-2-yl-methyl)-benzimidazol-5-yl-carboxylic acid-N-(2-aminoethyl)-N-(4-chlorbenzyl)-amide] |  | 55 |
| N=C(N)c1ccc(CCc2nc3cc(C(=O)N(CCN)Cc4ccc(Cl)cc4)ccc3n2Cc2cccs2)cc1 [Example 387, 2-[2-(4-amidinophenyl)ethyl]-1-(2-thiophenyl-methyl)-benzimidazol-5-yl-carboxylic acid-N-(2-aminoethyl)-N-(4-chlorbenzyl)-amide] |  | 55 |
| CCOCCCn1c(CCc2ccc(C(=N)N)cc2)nc2cc(C(=O)N(CCN)Cc3cccc(C(F)(F)F)c3)ccc21 [Example 390, 2-[2-(4-amidinophenyl)ethyl]-1-(3-ethoxypropyl)-benzimidazol-5-yl-carboxylic acid-N-(2-aminoethyl)-N-(3-trifluoromethylbenzyl)-amide] | 60 |  |
| N=C(N)c1ccc(CCc2nc3cc(C(=O)N(CCN)Cc4cccc(C(F)(F)F)c4)ccc3n2CC2CC2)cc1 [Example 394, 2-[2-(4-amidinophenyl)ethyl]-1-cyclopropylmethyl-benzimidazol-5-yl-carboxyiic acid-N-(2-aminoethyl)-N-(3-trifluoromethylbenzyl)-amide] |  | 52 |
| Cc1ccccc1N1CCN(CCCn2c(CCc3ccc(C(=N)N)cc3)nc3cc(C(=O)N(CCN)Cc4cccc(C(F)(F)F)c4)ccc32)CC1 [Example 400, 2-[2-(4-amidinophenyl)ethyl]-1-{3-[4-(2-methylphenyl)-piperazin-1-yl]-propyl}-benzimidazol-5-yl-carboxylic acid-N-(2-aminoethyl)-N-(3-trifluoromethylbenzyl)-amide] | 52 |  |
| N=C(N)c1ccc(CCc2nc3cc(C(=O)N(CCN)Cc4cccc(C(F)(F)F)c4)ccc3n2CC2CCCO2)cc1 (stereo not drawn) [Example 402, 2-[2-(4-amidinophenyl)ethyl]-1-(tetrahydrofuran-2-yl-methyl)-benzimidazol-5-yl-carboxylic acid-N-(2-aminoethyl)-N-(3-trifluoromethylbenzyl)-amide] | 51 |  |
| CCOCCCn1c(CCc2ccc(C(=N)N)cc2)nc2cc(C(=O)N(CCN)Cc3ccccc3F)ccc21 [Example 406, 2-[2-(4-amidinophenyl)ethyl]-1-(3-ethoxypropyl)-benzimidazol-5-yl-carboxylic acid-N-(2-aminoethyl)-N-(2-fluorobenzyl)-amide] | 54 |  |
| CCOCCCn1c(CCc2ccc(C(=N)N)cc2)nc2cc(C(=O)N(CCN)Cc3ccc4ccccc4c3)ccc21 [Example 422, 2-[2-(4-amidinophenyl)ethyl]-1-(3-ethoxypropyl)-benzimidazol-5-yl-carboxyiic acid-N-(2-aminoethyl)-N-(2-naphthylmethyl)-amide] | 58 |  |
| CCOCCCn1c(CCc2ccc(C(=N)N)cc2)nc2cc(C(=O)N(Cc3ccc(CN)cc3)Cc3ccc(C(=O)OC)cc3)ccc21 [Example 438, 2-[2-(4-amidinophenyl)ethyl]-1-(3-ethoxypropyl)-benzimidazol-5-yl-carboxylic acid-N-[4-(amino-methyl)-benzyl]-N-[4-(methoxycarbonyl)-benzyl]-amide] | 59 |  |
| COC(=O)c1ccc(CN(Cc2ccc(CN)cc2)C(=O)c2ccc3c(c2)nc(CCc2ccc(C(=N)N)cc2)n3CCCNC(=O)Cc2ccccc2)cc1 [Example 440, 2-[2-(4-amidinophenyl)ethyl]-1-[3-(benzylcarbonylamino)-propyl]-benzimidazol-5-yl-carboxylic acid-N-[4-(amino-methyl)-benzyl]-N-[4-(methoxycarbonyl)-benzyl]-amide] | 64 |  |
| COC(=O)c1ccc(CN(Cc2ccc(CN)cc2)C(=O)c2ccc3c(c2)nc(CCc2ccc(C(=N)N)cc2)n3CC2CC2)cc1 [Example 442, 2-[2-(4-amidinophenyl)ethyl]-1-cyclopropylmethyl-benzimidazol-5-yl-carboxylic acid-N-[4-(amino-methyl)-benzyl]-N-[4-(methoxycarbonyl)-benzyl]-amide] | 59 |  |
| COC(=O)c1ccc(CN(Cc2ccc(CN)cc2)C(=O)c2ccc3c(c2)nc(CCc2ccc(C(=N)N)cc2)n3CCc2ccccc2)cc1 [Example 443, 2-[2-(4-amidinophenyl)ethyl]-1-(2-phenylethyl)-benzimidazol-5-yl-carboxylic acid-N-[4-(amino-methyl)-benzyl]-N-[4-(methoxycarbonyl)-benzyl]-amide] | 52 |  |
| COC(=O)c1ccc(CN(Cc2ccc(CN)cc2)C(=O)c2ccc3c(c2)nc(CCc2ccc(C(=N)N)cc2)n3CCc2ccc(Cl)cc2)cc1 [Example 444, 2-[2-(4-amidinophenyl)ethyl]-1-[2-(4-chlorophenyl)ethyl]-benzimidazol-5-yl-carboxylic acid-N-[4-(amino-methyl)-benzyl]-N-[4-(methoxycarbonyl)-benzyl]-amide] | 53 |  |
| COC(=O)c1ccc(CN(Cc2ccc(CN)cc2)C(=O)c2ccc3c(c2)nc(CCc2ccc(C(=N)N)cc2)n3Cc2ccc(C)cc2)cc1 [Example 445, 2-[2-(4-amidinophenyl)ethyl]-1-(4-methylbenzyl)-benzimidazol-5-yl-carboxylic acid-N-[4-(amino-methyl)-benzyl]-N-[4-(methoxycarbonyl)-benzyl]-amide] | 52 |  |
| COC(=O)c1ccc(CN(Cc2ccc(CN)cc2)C(=O)c2ccc3c(c2)nc(CCc2ccc(C(=N)N)cc2)n3CC2CCCO2)cc1 (stereo not drawn) [Example 450, 2-[2-(4-amidinophenyl)ethyl]-1-(tetrahydrofuran-2-yl-methyl)-benzimidazol-5-yl-carboxylic acid-N-[4-(amino-methyl)-benzyl]-N-[4-(methoxycarbonyl)-benzyl]-amide] | 72 |  |
